Test results reported in EP4379060A1, “HIGH-EFFICIENCY PRODUCTION OF HYDROXYECTOINE” (Universität des Saarlandes, priority 2022, dated 2024).

Columns and labels:
C. glutamicum [1] = assay: Microbioreactor cultivation at different initial ectoine levels (growth, on-line OD620); assay type: cell-based, Corynebacterium glutamicum ATCC 13032; conditions: 30°C
Procedure: Cultivation of C. glutamicum in microbioreactors. Screening of C. glutamicum strains was carried out in 48-well flower plates with transparent bottom for online biomass sensing using a microbioreactor (BioLector, Beckman Coulter GmbH, Baesweiler, Germany, Baesweiler, Germany) at 1,300 rpm, 85% humidity and different temperatures, as given below. Two subsequent pre-cultures were conducted in shake flasks as described above. For main cultures, each well of the microtiter plate was filled with 1 mL of minimal glucose medium and inoculated to an initial OD660 of 0.5. Over the course of the cultivation, biomass was measured online as light backscatter at 620 nm. All experiments were conducted as triplicate.
In a first experiment the inventors examined if C. glutamicum, expressing ectD from P. stutzeri, can convert externally supplied ectoine into hydroxyectoine and, beneficially, excrete the latter (Fig. 1c). […]

C. glutamicum [2] = assay: Quantification of intracellular ectoines and free amino acids in cells grown with ectoine; assay type: cell-based, Corynebacterium glutamicum ATCC 13032; conditions: 37°C, 10 h
Procedure: Cultivation of C. glutamicum in shake flask. Cultures of C. glutamicum were incubated in baffled shake flasks (10% filling volume) in an orbital shaker at 230 rpm (Multitron, Infors AG, Bottmingen, Switzerland). For pre-culturing, cells were first grown overnight in complex BHI medium using a single colony from a 2-day pre-incubated BHI agar plate as inoculum. Subsequently, cells were harvested (8500 xg, 5 min, RT), washed once with minimal medium, and used to inoculate a second pre-culture in minimal glucose medium. The second pre-culture was then harvested during the exponential phase (8500 xg, 5 min, RT), washed once, and used to inoculate the main culture, again in minimal medium. The temperature was set to 30°C for precultures and 37°C for main cultures. All experiments were conducted as triplicate.
Quantification of intracellular metabolites. To quantify intracellular amino acids and ectoines, 2 mL of mid-exponentially growing cells were sampled by fast filtration (cellulose nitrate filter, 0.2 µm, 47 mm, Sartorius, Göttingen, Germany) (Bolten CJ, Kiefer P, Letisse F, Portais J-C, Wittmann C: Sampling for Metabolome Analysis of Microorganisms. Analytical chemistry 2007, 79:3843-3849.), including twice washing of the cells on the filter with two volumes of 2.5% NaCl. The filters were then transferred into cups prefilled with a 220 µM α-amino butyric acid solution as internal standard for later quantification. […] The obtained supernatants were collected for analysis, and intracellular amino acids were quantified by HPLC (Hans MA, Heinzle E, Wittmann C: Quantification of intracellular amino acids in batch cultures of Saccharomyces cerevisiae. Appl Microbiol Biotechnol 2001, 56:776-779.).
Quantification of ectoine and hydroxyectoine. Concentrations of ectoine and hydroxyectoine were analyzed by HPLC (Agilent Series 1290 Infinity, Agilent, Santa Clara, CA, USA). […] External standards were applied for quantification.
Quantification of amino acids. Amino acid levels of cell lysates were quantified using HPLC (Agilent Series 1290 Infinity, Agilent, Santa Clara, CA, USA) with α-amino butyric acid as internal standard. For this, the analytes were derivatized with ortho-phthalaldehyde and 9-fluorenylmethyl chloroformate and were separated and quantified as described previously (Krömer J, Fritz M, Heinzle E, Wittmann C: In vivo quantification of intracellular amino acids and intermediates of the methionine pathway in Corynebacterium glutamicum. Analytical biochemistry 2005, 340:171-173.).
For this purpose, the inventors extracted and quantified intracellular ectoine, hydroxyectoine, and free proteinogenic amino acids from the three strains during mid exponential growth, i. e. after 10 h (Fig. 3). […]

[3] = hydroxyectoine producers, glucose + 5 mM ectoine

CC1=NC(C(=O)O)CCN1 (stereo not drawn) [ectoine, 1,4,5,6-tetrahydro-2-methyl-4-pyrimidinecarboxylic acid]
cell fitness (C. glutamicum [1]; increasing ectoine concentration, strains expressing MSM, VSA, HEL, SCO EctD variants): unchanged | cell fitness (specific growth rate) (C. glutamicum [1]; initial ectoine 5, 10, 15 mM, strains pClik and pCES PtufectD^PST): not affected | reduction of intracellular I-glutamic acid (C. glutamicum [2]; MSM strain, glucose + 5 mM ectoine, versus control without ectoine): up to 47% | intracellular pools of I-glutamic acid, I-glutamine, and I-proline (C. glutamicum [2]; ectoine added to non-producing control strain with empty pCES vector, 5 mM): strongly reduced | drop of intracellular level of I-glutamine (C. glutamicum [2]; [3]): up to 61% | drop of intracellular level of I-proline (C. glutamicum [2]; [3]): up to 50%
